Measured values as given in patent publication US20250281548A1, “ANTIMICROBIAL COMPOSITIONS COMPRISING EXTRACELLULAR VESICLES AND METHODS THEREOF” (Washington State University, priority 2024, published 2025).

How the values were obtained:
[1] = test system: planktonic Candida auris cells; assay: Growth of planktonic C. auris cells (OD600); format: cell-based; details: one dose, PAO1 D-EVs 0.25 μg/μl, E. coli D-EVs 0.15 μg/μl, YPD broth
Experimental: (§1) FIGS. 16A-16H summarize the EV bacterial protocol adapted for a fungal pathogen, C. auris. […] Fungal cell growth was monitored by measuring the OD600 of the cell culture. […] FIG. 16D illustrates the overall cellular levels of ROS radicals (including ·O2^− and ·OH) of C. auris in YPD broth culture in response to bacterial D-EV treatments. After 24 hr. of growth, C. auris cell culture (OD600=0.5) was mixed with a Cellular ROS Assay Kit (ab186027) and further incubated for 1 hr. Then, one dose of D-EVs extracted from either PAO1 (0.25 μg/μl) or E. coli (0.15 μg/μl) was added, followed by immediate monitoring of changes in fluorescence intensity (n=4). […] H2O2 (20%) was used as a positive control to stimulate C. auris to produce ·OH species.
Candida auris (B11220, ATCC) frozen at −80° C. was activated in yeast peptone dextrose (YPD) broth overnight at 37° C. Cells were be maintained at 4° C. on YPD-agar plates. The in vitro C. auris biofilms were be prepared by first activating the cultures at 4° C. in YPD broth at 37° C., then transferring a volume of 2.5 μL (OD600˜0.5) onto sterile 13-mm polycarbonate membrane (WHA10417401, Sigma-Aldrich) on YPD-agar plates (FIG. 17). The plates were then incubated at 37° C. for 0 h, 24 h, 48 h, and 72 h, respectively, for the following experiments.

[2] = test system: P. aeruginosa PAO1 biofilms; assay: PAO1 colony biofilm growth, viable cell count (Log10 CFU/cm^2); format: cell-based; details: for Effect of ferric ions alone on 96-h PAO1 biofilm growth (in words): 10, 25, 50 μM Fe^3+
Experimental: P. aeruginosa (PAO1) from a −80° C. freezer was streaked on tryptic soy agar (TSA, BD Difco™ Dehydrated Culture Media, DF0369-17-6) and incubated overnight at 37° C. The P. aeruginosa was maintained on TSA plates at 4° C. and an inoculum was prepared by transferring a touch from this plate into 10 mL of tryptic soy broth (BD Bacto™) and incubated overnight. Then, a volume of 100 μL (OD600=0.1) was used to seed 47-mm sterilized filter membranes (Membrane Solutions MCE Gridded Membrane Filter, Mixed Cellulose Esters Membrane Filter, Pore Size: 0.45 μm) on TSA petri dishes. The plates were incubated at either 37° C. or 33° C. At desired time points (0, 1, 2, 4, 8, 12, 16, 24, 32, 48, 72, 85, 96, and 120 h), the biofilm was suspended in 0.9% NaCl to prepare serial dilutions for colony forming unit (CFU) counting. The viable cell concentration (CFU/cm^2) was calculated according to the literature. All experiments were done under aseptic conditions. TSA and TSB were autoclaved at 121° C. and […] for 50 min/L.
To quantify the effects of G-EVs and D-EVs on the growth behavior of P. aeruginosa PAO1 biofilms, biofilms grown for 2 hr. (lag phase), 8 hr. (exponential phase), and 24 hr. (stationary phase) were tested. Briefly, an inoculum was prepared by transferring a touch from the P. aeruginosa PAO1-TSA plates into 10 ml of TSB and incubating the plates at 37° C. overnight. A volume of 2.5 μL (OD600˜0.5) was used to seed sterile 13-mm polycarbonate membranes (WHA10417401, Sigma-Aldrich) on TSA plates and incubated at 37° C. Biofilms grown for 2 hr. were treated with one dose of G-EVs (0.028 μg/μL) or D-EVs (0.33 μg/μL) and incubated at 37° C. for 24 hours. Biofilms grown for 8 hr. were treated with one dose of G-EVs (0.037 μg/μL) or D-EVs (0.33 μg/μL) and incubated at 37° C. for 24 hours. Three doses of D-EVs (0.33 μg/μL) were applied (one dose every 24 h) to biofilms grown for 24 h, and the plates were incubated at 37° C. Then viable cells were counted and reported as CFU/cm^2.
To test if the suppression of PAO1 biofilm growth is caused by D-EV-induced excessive iron uptake by D-EV recipient cells leading to the activation of bacterial cell death, the research team examined whether D-EV-induced excessive iron uptake could improve the poor efficacy of the D EVs against 96-h biofilms (FIG. 9D). […]
The viability of treated P. aeruginosa PAO1 biofilms was investigated and compared to control. P. aeruginosa PAO1 biofilms at 2 hr., 8 hr., 24 hr., 48 hr., and 96 hr. were individually treated with a one-dose of P. aeruginosa PAO1 D-EVs±iron (50 μM) and the biofilm inhibition was quantified in the term of log10 CFU·cm^−2.

C. auris = assay: Cellular ROS assay in C. auris culture; format: cell-based, Candida auris; details: PAO1 D-EVs 0.25 μg/μl, E. coli D-EVs 0.15 μg/μl; ertapenem, tetracycline 2 mg/mL
Experimental: as §1

OO [H2O2 (30%), H2O2]
C. auris growth (in words) [1]: effectively inhibited fungal growth

[Fe+3] [ferric ions]
Growth of PAO1 biofilms at 2-96 hr. after one dose (in words) ([2]; 2, 8, 24, 48, 96 hr. biofilms, one dose D-EVs ± iron 50 μM, 24 hr. exposure): increased | Effect of ferric ions alone on 96-h PAO1 biofilm growth (in words) ([2]; 96-h biofilms): marginally promoted biofilm growth | Effect of ferric ions alone on 96-h PAO1 biofilm growth (in words) ([2]; 96-h biofilms, listed as Ferric ions): very minimal effect | Growth of 96-h PAO1 biofilm with ferric ions alone ([2]; 96-h biofilms, ferric ions alone (10-50 μM), PBS control ~8.2): 8.7 log10

C[C@@H](O)[C@H]1C(=O)N2C(C(=O)O)=C(S[C@@H]3CN[C@H](C(=O)Nc4cccc(C(=O)O)c4)C3)[C@H](C)[C@H]12 [ertapenem]
ROS production in C. auris (in words) (C. auris): No change in ROS production
